# ChEMBL document CHEMBL1255320, “Anti-BK virus activity of nucleoside analogs” (Antimicrob Agents Chemother, 2008)
# Experiments:
# [1] = Cytotoxicity against human WI38 cells by neutral red assay; format: cell-based, WI-38
# BK polyomavirus = assay: Antimicrobial activity against BK polyomavirus ATCC VR837 infected in human WI38 cells assessed as reduction in viral titer after 7 days by PCR analysis; format: functional, organism-based; conditions: Betapolyomavirus hominis, ATCC VR837, WI-38, 168 h
# [2] = Selectivity index, ratio of CC50 for human WI38 cells to EC50 for BK polyomavirus ATCC VR837; format: toxicity, cell-based, WI-38; conditions: read-out: Selectivity Index
Structure (SMILES),CC50 [1],EC50 (BK polyomavirus),selectivity ratio [2]
CCCCCCCC/C=C\CCCCCCCC(=O)Nc1ncnc2c1ncn2CCOCP(=O)(O)O,165 µM,1 µM,58.9
CCCCCCCC/C=C\CCCCCCCCOC(=O)Nc1ncnc2c1ncn2CCOCP(=O)(O)O,529 µM,2.3 µM,233
Nc1nc(=O)c2ncn(COCCOP3(=O)OCc4ccccc4O3)c2[nH]1 (stereo unspecified),100 µM,> 100 µM,1
Nc1ncnc2c1ncn2/C=C1/CC1(CO)CO,312 µM,40.8 µM,11.9
CCCCCCCCCCCCCCCCOCCCOP(=O)(O)CO[C@H](CO)Cn1cnc2c(N)ncnc21,0.8 µM,0.02 µM,58.5
CCCCCCCCCCCCCCCCCCOCCOP(=O)(O)CO[C@H](CO)Cn1cnc2c(N)ncnc21,0.5 µM,0.03 µM,11.7
"Cc1cccc2c1OP(=O)(OC[C@H]1O[C@@H](n3cc(/C=C/Br)c(=O)[nH]c3=O)CC1O)OC2 (single isomer, unassigned)",98.3 µM,41.9 µM,2.3
CC(C)(C)C(=O)OCOP(=O)(COCCn1cnc2c(N)ncnc21)OCOC(=O)C(C)(C)C [ADEFOVIR DIPIVOXIL],3.1 µM,0.7 µM,5.7
Nc1ncnc2c1ncn2CCOCP(=O)(O)O [ADEFOVIR],125 µM,95.8 µM,1.3
O=c1[nH]cnc2c1ncn2[C@H]1CC[C@@H](CO)O1 [DIDANOSINE],> 100 µM,> 100 µM,1
CC(=O)OCC(CCn1cnc2cnc(N)nc21)COC(C)=O [FAMCICLOVIR],> 0.78 µM,> 0.78 µM,1
Nc1nc2c(ncn2/C=C2/CC2(CO)CO)c(=O)[nH]1 [FILOCICLOVIR],> 100 µM,> 100 µM,1
Nc1ccn([C@@H]2CS[C@H](CO)O2)c(=O)n1 [LAMIVUDINE],> 100 µM,> 100 µM,1
Cc1cn([C@H]2C=C[C@@H](CO)O2)c(=O)[nH]c1=O [STAVUDINE],> 100 µM,> 100 µM,1
Nc1nc(O)c2ncn(/C=C3/CC3CO)c2n1 (stereo unspecified) [SYNGUANOL],> 100 µM,> 100 µM,1
CC(C)OC(=O)OCOP(=O)(CO[C@H](C)Cn1cnc2c(N)ncnc21)OCOC(=O)OC(C)C [TENOFOVIR DISOPROXIL],> 50 µM,> 50 µM,1
Cc1cn([C@H]2C[C@H](N=[N+]=[N-])[C@@H](CO)O2)c(=O)[nH]c1=O [ZIDOVUDINE],> 100 µM,> 100 µM,1
